Assay results published in US20040077624A1, “Novel combination” (Pfizer Inc., priority 2002, published 2004).

Test system: spontaneously hypertensive rat (SHR)
Assay: Animal study: haemodynamic parameters in spontaneously hypertensive rats under continuous infusion
Assay type: in vivo
Conditions: male SHR; continuous infusion 0.4 mL/h over 4 days; enalapril 7.5 μg/mL, PDE5 inhibitor 200 μg/mL; difference from the vehicle response
Protocol: The spontaneously hypertensive rat (SHR) is a widely used model of human hypertension. Male SHRs (20-22 weeks old) were instrumented with Doppler flow probes for the measurement of mesenteric, hindquarters and renal blood flow, aortic blood pressure and heart rate according to published methods (Gardiner, S M et al.; Br. J. Pharmacol. 132(8), 1625-1629, 2001).
Solutions of enalapril (7.5 μg/mL), PDE5 inhibitor (200μg/mL) and a combination of enalapril and PDE5 inhibitor (7.5μg/mL+200 μg/mL) were infused at a rate of 0.4 mL/h throughout the experimental period. Control animals received compound vehicle; isotonic saline adjusted to pH 4 with hydrochloric acid.
Baseline haemodynamic parameters were recorded. Animals (n=7 or 8/group) were randomised then treated with the drug solution by continuous infusion over 4 days. Changes in haemodynamic parameters were monitored during the study period for 7h on each day.

| SMILES | Change in aortic conductance | Change in mesenteric conductance | Change in renal conductance | Overall change in mean BP |
| --- | --- | --- | --- | --- |
| CCc1c2nc(-c3cc(S(=O)(=O)N4CCN(CC)CC4)cnc3OCCOC)[nH]c(=O)c2nn1Cc1ccccn1 [PDE5 inhibitor, 3-ethyl-5-[5-(4-ethylpiperazin-1-ylsulphonyl)-2-(2-methoxyethoxy)pyridin-3-yl]-2-(pyridin-2-yl)methyl-2,6-dihydro-7H-pyrazolo[4,3-d]pyrimidin-7-one] | +19.8% | +22.1% | −0.8% | −12.1 mmHg |
| CCOC(=O)[C@H](CCc1ccccc1)N[C@@H](C)C(=O)N1CCC[C@H]1C(=O)O [Enalapril, enalapril] | +3.7% | +22.4% | +14.2% | −2.4 mmHg |
